ChEMBL document CHEMBL5291721, “A preclinical secondary pharmacology resource illuminates target-adverse drug reaction associations of marketed drugs” (Nat Commun, 2023)

Columns and labels:
[1] = target: T1, Cholecystokinin receptor type A (Homo sapiens, UniProt P32238)
T1 sequence (P32238 whole entry): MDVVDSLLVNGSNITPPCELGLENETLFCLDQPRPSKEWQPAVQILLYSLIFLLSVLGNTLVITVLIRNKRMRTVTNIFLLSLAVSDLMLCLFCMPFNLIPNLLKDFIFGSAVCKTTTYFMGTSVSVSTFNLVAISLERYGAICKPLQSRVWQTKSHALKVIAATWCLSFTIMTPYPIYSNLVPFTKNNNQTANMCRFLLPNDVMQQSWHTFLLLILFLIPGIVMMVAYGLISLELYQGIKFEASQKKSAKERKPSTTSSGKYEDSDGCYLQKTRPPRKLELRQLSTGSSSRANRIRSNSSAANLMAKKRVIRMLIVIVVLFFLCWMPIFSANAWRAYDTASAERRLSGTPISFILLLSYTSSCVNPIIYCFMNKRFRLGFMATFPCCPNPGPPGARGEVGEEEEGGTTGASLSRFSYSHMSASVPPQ

[2] = target: T2, 5-hydroxytryptamine receptor 1A (Homo sapiens, UniProt P08908); type: functional, cell-based
T2 sequence (P08908 whole entry): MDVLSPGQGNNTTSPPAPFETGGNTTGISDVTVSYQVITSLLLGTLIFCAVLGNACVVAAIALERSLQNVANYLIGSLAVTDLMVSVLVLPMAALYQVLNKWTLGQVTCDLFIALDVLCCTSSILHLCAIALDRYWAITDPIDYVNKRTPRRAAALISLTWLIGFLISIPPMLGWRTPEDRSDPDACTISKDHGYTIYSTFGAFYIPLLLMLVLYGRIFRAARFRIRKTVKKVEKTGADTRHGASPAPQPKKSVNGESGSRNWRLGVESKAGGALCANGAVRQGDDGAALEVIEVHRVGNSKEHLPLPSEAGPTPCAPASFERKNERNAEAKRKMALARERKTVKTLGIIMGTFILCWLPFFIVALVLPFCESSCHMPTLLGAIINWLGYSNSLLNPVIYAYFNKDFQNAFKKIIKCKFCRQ

[3] = target: 3',5'-cyclic-AMP phosphodiesterase 4D (Homo sapiens, UniProt Q08499); type: functional
3',5'-cyclic-AMP phosphodiesterase 4D, sequence (Q08499 whole entry): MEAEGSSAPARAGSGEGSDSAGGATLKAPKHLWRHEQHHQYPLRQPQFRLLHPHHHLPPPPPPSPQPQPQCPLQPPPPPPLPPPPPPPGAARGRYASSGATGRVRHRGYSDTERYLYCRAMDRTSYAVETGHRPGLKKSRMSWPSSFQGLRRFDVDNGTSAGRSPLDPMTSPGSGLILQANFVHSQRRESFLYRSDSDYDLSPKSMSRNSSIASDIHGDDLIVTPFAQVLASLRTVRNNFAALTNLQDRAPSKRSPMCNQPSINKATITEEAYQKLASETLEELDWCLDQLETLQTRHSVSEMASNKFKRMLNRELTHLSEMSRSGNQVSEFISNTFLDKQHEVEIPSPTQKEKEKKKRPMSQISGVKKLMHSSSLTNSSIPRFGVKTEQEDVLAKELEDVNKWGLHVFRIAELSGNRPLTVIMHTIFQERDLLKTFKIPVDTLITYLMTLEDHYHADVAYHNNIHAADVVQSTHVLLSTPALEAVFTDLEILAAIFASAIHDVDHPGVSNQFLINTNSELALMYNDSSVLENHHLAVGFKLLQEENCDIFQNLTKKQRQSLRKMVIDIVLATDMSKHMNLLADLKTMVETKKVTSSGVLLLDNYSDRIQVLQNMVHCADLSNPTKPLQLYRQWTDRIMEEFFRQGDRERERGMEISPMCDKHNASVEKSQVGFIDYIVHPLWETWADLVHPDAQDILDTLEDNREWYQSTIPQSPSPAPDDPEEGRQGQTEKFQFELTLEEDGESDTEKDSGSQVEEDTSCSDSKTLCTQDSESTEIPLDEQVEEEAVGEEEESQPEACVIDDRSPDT

[4] = target: T3, Neuropeptide Y receptor type 1 (Homo sapiens, UniProt P25929)
T3 sequence (P25929 whole entry): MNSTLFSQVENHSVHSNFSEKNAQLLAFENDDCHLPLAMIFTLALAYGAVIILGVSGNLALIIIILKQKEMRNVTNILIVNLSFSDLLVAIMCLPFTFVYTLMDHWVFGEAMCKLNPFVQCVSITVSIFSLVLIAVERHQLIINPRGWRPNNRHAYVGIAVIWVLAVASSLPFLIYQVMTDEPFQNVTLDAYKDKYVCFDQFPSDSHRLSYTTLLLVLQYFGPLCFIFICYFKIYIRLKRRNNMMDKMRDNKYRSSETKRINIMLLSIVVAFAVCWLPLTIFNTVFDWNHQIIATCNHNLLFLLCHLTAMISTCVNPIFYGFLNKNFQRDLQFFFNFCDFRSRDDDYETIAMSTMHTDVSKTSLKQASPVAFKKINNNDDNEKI

[5] = target: Melanocortin receptor 3 (Homo sapiens, UniProt P41968)
Melanocortin receptor 3, sequence (P41968 whole entry): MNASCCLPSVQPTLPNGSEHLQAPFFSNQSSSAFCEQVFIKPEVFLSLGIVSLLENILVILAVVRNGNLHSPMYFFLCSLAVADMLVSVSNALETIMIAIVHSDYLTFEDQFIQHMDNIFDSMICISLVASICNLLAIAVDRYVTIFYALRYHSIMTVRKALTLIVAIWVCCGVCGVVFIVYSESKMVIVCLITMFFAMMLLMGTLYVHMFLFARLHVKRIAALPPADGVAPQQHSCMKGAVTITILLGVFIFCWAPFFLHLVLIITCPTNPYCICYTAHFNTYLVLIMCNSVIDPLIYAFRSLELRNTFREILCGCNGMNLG

[6] = target: T4, 5-hydroxytryptamine receptor 3A (Homo sapiens, UniProt P46098); type: functional
T4 sequence (P46098 whole entry): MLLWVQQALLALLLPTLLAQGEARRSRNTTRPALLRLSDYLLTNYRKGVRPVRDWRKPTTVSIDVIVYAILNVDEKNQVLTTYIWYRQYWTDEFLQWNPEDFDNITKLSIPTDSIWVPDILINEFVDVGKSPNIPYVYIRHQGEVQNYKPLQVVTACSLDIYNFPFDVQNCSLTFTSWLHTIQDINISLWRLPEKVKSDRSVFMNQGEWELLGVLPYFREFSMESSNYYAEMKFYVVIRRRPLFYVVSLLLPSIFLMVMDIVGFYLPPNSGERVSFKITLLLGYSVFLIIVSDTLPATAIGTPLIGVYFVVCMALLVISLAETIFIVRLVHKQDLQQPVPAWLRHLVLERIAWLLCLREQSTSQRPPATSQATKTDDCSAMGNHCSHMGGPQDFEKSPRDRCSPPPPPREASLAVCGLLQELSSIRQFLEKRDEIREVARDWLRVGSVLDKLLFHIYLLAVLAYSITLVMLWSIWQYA

[7] = target: T5, Alpha-1A adrenergic receptor (Homo sapiens, UniProt P35348); type: functional, cell-based
T5 sequence (P35348 whole entry): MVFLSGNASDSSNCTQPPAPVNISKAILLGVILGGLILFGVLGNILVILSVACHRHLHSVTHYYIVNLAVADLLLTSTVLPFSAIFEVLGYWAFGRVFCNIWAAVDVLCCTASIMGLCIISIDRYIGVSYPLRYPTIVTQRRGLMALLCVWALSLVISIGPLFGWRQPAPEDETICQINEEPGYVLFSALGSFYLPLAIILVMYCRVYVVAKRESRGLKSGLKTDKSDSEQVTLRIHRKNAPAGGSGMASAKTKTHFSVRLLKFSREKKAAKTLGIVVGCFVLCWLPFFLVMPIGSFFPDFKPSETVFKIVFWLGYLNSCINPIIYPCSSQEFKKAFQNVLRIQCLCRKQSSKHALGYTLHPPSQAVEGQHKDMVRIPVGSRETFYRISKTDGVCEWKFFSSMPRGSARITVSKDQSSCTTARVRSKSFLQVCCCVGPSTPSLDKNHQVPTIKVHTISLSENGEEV

[8] = target: D(1A) dopamine receptor (Homo sapiens, UniProt P21728); type: functional, cell-based
D(1A) dopamine receptor, sequence (P21728 whole entry): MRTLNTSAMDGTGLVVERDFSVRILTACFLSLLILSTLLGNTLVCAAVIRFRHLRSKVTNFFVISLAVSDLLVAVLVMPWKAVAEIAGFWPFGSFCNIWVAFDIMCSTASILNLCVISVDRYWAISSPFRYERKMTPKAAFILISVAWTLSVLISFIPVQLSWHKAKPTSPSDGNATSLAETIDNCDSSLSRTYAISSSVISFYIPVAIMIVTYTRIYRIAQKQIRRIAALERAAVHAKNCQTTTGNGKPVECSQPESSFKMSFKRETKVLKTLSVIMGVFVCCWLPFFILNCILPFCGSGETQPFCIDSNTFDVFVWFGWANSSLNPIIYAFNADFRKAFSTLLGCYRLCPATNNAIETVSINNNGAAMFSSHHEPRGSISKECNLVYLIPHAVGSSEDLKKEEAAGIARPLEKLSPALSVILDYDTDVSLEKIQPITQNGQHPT

[9] = target: Histamine H1 receptor (Homo sapiens, UniProt P35367)
Histamine H1 receptor, sequence (P35367 whole entry): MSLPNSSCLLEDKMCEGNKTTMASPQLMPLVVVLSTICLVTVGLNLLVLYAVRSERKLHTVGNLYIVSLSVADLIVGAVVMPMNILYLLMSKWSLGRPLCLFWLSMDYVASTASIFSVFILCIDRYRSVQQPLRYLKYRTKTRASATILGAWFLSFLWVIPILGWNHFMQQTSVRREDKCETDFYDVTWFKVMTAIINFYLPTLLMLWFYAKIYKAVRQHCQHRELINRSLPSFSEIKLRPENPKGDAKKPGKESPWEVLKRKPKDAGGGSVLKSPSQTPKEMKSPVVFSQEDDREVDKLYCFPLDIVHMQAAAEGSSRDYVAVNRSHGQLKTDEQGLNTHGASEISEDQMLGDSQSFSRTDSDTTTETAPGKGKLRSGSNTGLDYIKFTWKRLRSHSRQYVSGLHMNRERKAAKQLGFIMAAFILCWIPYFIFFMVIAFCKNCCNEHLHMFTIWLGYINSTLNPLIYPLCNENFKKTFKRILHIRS

[10] = target: Glutamate receptor ionotropic, NMDA 1 (Rattus norvegicus, UniProt P35439)
[11] = target: Sodium-dependent noradrenaline transporter (Homo sapiens, UniProt P23975)
Sodium-dependent noradrenaline transporter, sequence (P23975 whole entry): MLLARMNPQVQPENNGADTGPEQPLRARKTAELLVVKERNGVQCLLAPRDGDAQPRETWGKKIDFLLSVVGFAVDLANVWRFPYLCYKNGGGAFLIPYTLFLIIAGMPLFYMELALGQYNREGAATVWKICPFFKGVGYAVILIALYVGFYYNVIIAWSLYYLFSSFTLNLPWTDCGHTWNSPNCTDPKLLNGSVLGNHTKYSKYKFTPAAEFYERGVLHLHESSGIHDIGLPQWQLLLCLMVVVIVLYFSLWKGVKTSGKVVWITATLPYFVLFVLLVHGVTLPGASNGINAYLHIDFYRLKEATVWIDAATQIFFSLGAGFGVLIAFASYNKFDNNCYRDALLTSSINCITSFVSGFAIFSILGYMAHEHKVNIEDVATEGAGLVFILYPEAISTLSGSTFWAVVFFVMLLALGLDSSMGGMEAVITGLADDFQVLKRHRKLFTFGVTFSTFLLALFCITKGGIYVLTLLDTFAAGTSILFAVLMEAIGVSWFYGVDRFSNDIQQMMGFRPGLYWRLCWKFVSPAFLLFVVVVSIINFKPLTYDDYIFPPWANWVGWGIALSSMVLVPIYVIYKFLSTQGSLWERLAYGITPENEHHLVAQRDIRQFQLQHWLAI
Further: assay procedure not described here.

Row | Compound | AC50 [1] | AC50 [2] | AC50 [3] | AC50 [4] | AC50 [5] | AC50 [6] | AC50 [7] | AC50 [8] | AC50 [9] | AC50 [10] | AC50 [11]
1 | CS(=O)(=O)NC(=O)CCC/C=C\C[C@H]1C(=O)C[C@@H](O)[C@@H]1/C=C/[C@@H](O)COc1ccccc1 [SULPROSTONE] | > 30 µM | > 30 µM | > 30 µM | > 30 µM | > 30 µM | > 30 µM | > 30 µM | > 30 µM | > 30 µM | > 30 µM | > 30 µM
2 | CCCCOC(=O)C(=O)Nc1cccc(-c2nnn[nH]2)c1 [TAZANOLAST] | > 30 µM | > 30 µM | > 30 µM | > 30 µM | > 30 µM | > 30 µM | > 30 µM | > 30 µM | > 30 µM | > 30 µM | > 30 µM
3 | CCCCC[C@H](O)CC[C@@H]1[C@H]2Cc3cccc(OCC(=O)O)c3C[C@H]2C[C@H]1O [TREPROSTINIL] | > 30 µM | > 30 µM | > 30 µM | > 30 µM | > 30 µM | > 30 µM | > 30 µM | > 30 µM | > 30 µM | > 30 µM | > 30 µM
4 | CC1=C(/C=C/C(C)=C/C=C/C(C)=C/C(=O)Oc2c(C)c(C)c3c(c2C)CCC(C)(CCCC(C)CCCC(C)CCCC(C)C)O3)C(C)(C)CCC1 (stereo not drawn) [TRETINOIN TOCOFERIL] | > 30 µM | > 30 µM | > 30 µM | > 30 µM | > 30 µM | > 30 µM | > 30 µM | > 30 µM | > 30 µM | > 30 µM | > 30 µM
5 | CN(C)CCOCC(=O)NC12CC3CC(CC(C3)C1)C2 [TROMANTADINE] | > 30 µM | > 30 µM | > 30 µM | > 30 µM | > 30 µM | > 30 µM | > 30 µM | > 30 µM | > 30 µM | > 30 µM | > 30 µM
6 | CCCCCCCC(=O)CC[C@@H]1[C@@H](C/C=C\CCCC(=O)O)[C@@H](O)C[C@H]1O [UNOPROSTONE] | > 30 µM | > 30 µM | > 30 µM | > 30 µM | > 30 µM | > 30 µM | > 30 µM | > 30 µM | > 30 µM | > 30 µM | > 30 µM
7 | OCC(CO)N[C@H]1C[C@](O)(CO)[C@@H](O)[C@H](O)[C@H]1O [VOGLIBOSE] | > 30 µM | > 30 µM | > 30 µM | > 30 µM | > 30 µM | > 30 µM | > 30 µM | > 30 µM | > 30 µM | > 30 µM | > 30 µM
8 | SITOSTEROLS | > 30 µM | > 30 µM | > 10 µM | > 30 µM | > 30 µM | > 30 µM | > 30 µM | > 30 µM | > 30 µM | > 30 µM | > 30 µM
